Experimental data: ChEMBL document CHEMBL1153415, “Evaluation of antioxidant properties of monoaromatic derivatives of pulvinic acids” (J Med Chem, 2009)
Values belong to the compound of their own block, whether it stands above or below them. Activity calls are given as the source filed them. The calls are words filed in the database; no cut-off is given here.

How the values were obtained:
[1] = Antioxidant activity against Fe/EDTA/H2O2-induced thymidine degradation by thymidine protection assay; type: functional
[2] = Antioxidant activity against UV/H2O2-induced thymidine degradation by thymidine protection assay; type: functional
[3] = test system: CHO; test: Cytotoxicity against CHO cells at 10 to 100 uM by MTT assay relative to control; type: cell-based, Cricetulus griseus; settings: chinese hamster
[4] = Antioxidant activity against UV/H2O2-induced thymidine degradation at 100 uM by thymidine protection assay; type: functional
[5] = Antioxidant activity against superoxide radical assessed as trolox equivalents by luminol-enhanced chemiluminescence; type: functional
[6] = Antioxidant activity against […]/EDTA/H2O2-induced pEGFPLuc plasmid DNA degradation assessed as remaining supercoiled DNA form at 125 uM by gel-electrophoresis; type: functional
[7] = Antioxidant activity against Fe/EDTA/H2O2-induced thymidine degradation at 100 uM by thymidine protection assay; type: functional

EC50 [1]: 971 µM | EC50 [2]: 175 µM
SMILES: COC(=O)/C(=C1/OC(=O)C(C)=C1O)c1ccc(OC)cc1

EC50 [1]: 850 µM | EC50 [2]: 220 µM
SMILES: COC(=O)/C(=C1/OC(=O)C(C)=C1O)c1ccccc1
Activity [3]: Non-toxic

SMILES: COC(=O)/C(C)=C1/OC(=O)C(c2ccc(Br)cc2)=C1O
Activity [4]: Active | Activity [3]: Non-toxic | Activity [5]: 113 µg | Activity [6]: Active | Activity [7]: Active

SMILES: COC(=O)/C(C)=C1/OC(=O)C(c2ccc(C(C)C)cc2)=C1O
Activity [4]: Active | Activity [6]: Active | Activity [7]: Active

SMILES: COc1ccc(C2=C(O)/C(=C(/C)C(=O)OC(C)C)OC2=O)cc1
Activity [4]: 27% | Activity [5]: 105 µg | Activity [6]: Active | Activity [7]: 37%

EC50 [1]: 196 µM | EC50 [2]: 130 µM
SMILES: COC(=O)/C(C)=C1/OC(=O)C(c2ccc(OC)cc2)=C1O
Activity [5]: 141 µg | Activity [6]: 40%

SMILES: COC(=O)/C(=C1/OC(=O)C(c2ccccc2)=C1O)c1ccccc1
Activity [4]: Active | Activity [7]: Active

SMILES: COc1ccc(/C(C(=O)OC(C)C)=C2\OC(=O)C(C)=C2O)cc1
Activity [3]: Non-toxic | Activity [5]: 77 µg

EC50 [1]: 109 µM | EC50 [2]: 90 µM
SMILES: COC(=O)/C(=C1/OC(O)=C(c2ccc(OC)cc2)C1=O)c1ccc(OC)cc1
Activity [3]: Non-toxic | Activity [5]: 54 µg | Activity [6]: Active

EC50 [1]: 226 µM | EC50 [2]: 91 µM
SMILES: CCCCNC(=O)/C(C)=C1/OC(=O)C(c2ccc(OC)cc2)=C1O
Activity [4]: 30% | Activity [3]: Non-toxic | Activity [5]: 86 µg | Activity [6]: 40% | Activity [7]: 37%

SMILES: COc1ccc(C2=C(O)/C(=C(/C)C(=O)N(C)OC)OC2=O)cc1
Activity [4]: 30% | Activity [6]: Active | Activity [7]: 37%

SMILES: COc1ccc(C2=C(O)/C(=C(/C)C(=O)NCCCN)OC2=O)cc1
Activity [4]: 30% | Activity [5]: 81 µg | Activity [6]: 40% | Activity [7]: 37%

SMILES: COC(=O)/C(C)=C1/OC(=O)C(/C=C/c2ccccc2)=C1O
Activity [4]: Active | Activity [6]: Active | Activity [7]: Active

SMILES: COC(=O)/C(C)=C1/OC(=O)C(c2ccc(F)cc2)=C1O
Activity [4]: Active | Activity [6]: Active | Activity [7]: Active

SMILES: COc1ccc(C2=C(O)/C(=C(/C)C(=O)N3CCOCC3)OC2=O)cc1
Activity [4]: 30% | Activity [3]: Non-toxic | Activity [5]: 79 µg | Activity [6]: Active | Activity [7]: 37%

SMILES: COC(=O)/C(C)=C1/OC(=O)C(c2ccccc2)=C1O
Activity [3]: Non-toxic | Activity [6]: Active

SMILES: COC(=O)/C(=C1/OC(=O)C(C)=C1O)c1ccc(Br)cc1
Activity [5]: 87 µg

EC50 [1]: 608 µM | EC50 [2]: 117 µM
SMILES: COc1ccc(C2=C(O)/C(=C(/C)C(C)(C)O)OC2=O)cc1
Activity [3]: Non-toxic | Activity [6]: 40%
